Results from patent publication US8691865B2 (AbbVie Inc., priority 2008, dated 2014).
Like-named read-outs stand apart in the source and are kept apart here.

Target: human Cav2.2 (Homo sapiens, UniProt Q00975)
Test: Assessment of calcium channel activity using FLIPR (Ca2+ influx in IMR32 cells)
Format: cell-based
Method in brief: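 Human neuroblastoma IMR32 cells were seeded at 1−1.2×10^5 cells/well and cultured 48 h at 37 °C before FLIPR calcium influx measurement. Percent inhibition at each concentration was calculated against the no-inhibitor signal, and IC50 came from sigmoidal dose-response fits.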

[1] = read-out: IC50 (μM) or percent inhibition (* indicates 3 minute incubation, otherwise 60 minute), IC50, 60 minute pre-incubation with compound, IMR32 cells, 80 mM KCl depolarization

human Cav2.2, sequence (Q00975 whole entry): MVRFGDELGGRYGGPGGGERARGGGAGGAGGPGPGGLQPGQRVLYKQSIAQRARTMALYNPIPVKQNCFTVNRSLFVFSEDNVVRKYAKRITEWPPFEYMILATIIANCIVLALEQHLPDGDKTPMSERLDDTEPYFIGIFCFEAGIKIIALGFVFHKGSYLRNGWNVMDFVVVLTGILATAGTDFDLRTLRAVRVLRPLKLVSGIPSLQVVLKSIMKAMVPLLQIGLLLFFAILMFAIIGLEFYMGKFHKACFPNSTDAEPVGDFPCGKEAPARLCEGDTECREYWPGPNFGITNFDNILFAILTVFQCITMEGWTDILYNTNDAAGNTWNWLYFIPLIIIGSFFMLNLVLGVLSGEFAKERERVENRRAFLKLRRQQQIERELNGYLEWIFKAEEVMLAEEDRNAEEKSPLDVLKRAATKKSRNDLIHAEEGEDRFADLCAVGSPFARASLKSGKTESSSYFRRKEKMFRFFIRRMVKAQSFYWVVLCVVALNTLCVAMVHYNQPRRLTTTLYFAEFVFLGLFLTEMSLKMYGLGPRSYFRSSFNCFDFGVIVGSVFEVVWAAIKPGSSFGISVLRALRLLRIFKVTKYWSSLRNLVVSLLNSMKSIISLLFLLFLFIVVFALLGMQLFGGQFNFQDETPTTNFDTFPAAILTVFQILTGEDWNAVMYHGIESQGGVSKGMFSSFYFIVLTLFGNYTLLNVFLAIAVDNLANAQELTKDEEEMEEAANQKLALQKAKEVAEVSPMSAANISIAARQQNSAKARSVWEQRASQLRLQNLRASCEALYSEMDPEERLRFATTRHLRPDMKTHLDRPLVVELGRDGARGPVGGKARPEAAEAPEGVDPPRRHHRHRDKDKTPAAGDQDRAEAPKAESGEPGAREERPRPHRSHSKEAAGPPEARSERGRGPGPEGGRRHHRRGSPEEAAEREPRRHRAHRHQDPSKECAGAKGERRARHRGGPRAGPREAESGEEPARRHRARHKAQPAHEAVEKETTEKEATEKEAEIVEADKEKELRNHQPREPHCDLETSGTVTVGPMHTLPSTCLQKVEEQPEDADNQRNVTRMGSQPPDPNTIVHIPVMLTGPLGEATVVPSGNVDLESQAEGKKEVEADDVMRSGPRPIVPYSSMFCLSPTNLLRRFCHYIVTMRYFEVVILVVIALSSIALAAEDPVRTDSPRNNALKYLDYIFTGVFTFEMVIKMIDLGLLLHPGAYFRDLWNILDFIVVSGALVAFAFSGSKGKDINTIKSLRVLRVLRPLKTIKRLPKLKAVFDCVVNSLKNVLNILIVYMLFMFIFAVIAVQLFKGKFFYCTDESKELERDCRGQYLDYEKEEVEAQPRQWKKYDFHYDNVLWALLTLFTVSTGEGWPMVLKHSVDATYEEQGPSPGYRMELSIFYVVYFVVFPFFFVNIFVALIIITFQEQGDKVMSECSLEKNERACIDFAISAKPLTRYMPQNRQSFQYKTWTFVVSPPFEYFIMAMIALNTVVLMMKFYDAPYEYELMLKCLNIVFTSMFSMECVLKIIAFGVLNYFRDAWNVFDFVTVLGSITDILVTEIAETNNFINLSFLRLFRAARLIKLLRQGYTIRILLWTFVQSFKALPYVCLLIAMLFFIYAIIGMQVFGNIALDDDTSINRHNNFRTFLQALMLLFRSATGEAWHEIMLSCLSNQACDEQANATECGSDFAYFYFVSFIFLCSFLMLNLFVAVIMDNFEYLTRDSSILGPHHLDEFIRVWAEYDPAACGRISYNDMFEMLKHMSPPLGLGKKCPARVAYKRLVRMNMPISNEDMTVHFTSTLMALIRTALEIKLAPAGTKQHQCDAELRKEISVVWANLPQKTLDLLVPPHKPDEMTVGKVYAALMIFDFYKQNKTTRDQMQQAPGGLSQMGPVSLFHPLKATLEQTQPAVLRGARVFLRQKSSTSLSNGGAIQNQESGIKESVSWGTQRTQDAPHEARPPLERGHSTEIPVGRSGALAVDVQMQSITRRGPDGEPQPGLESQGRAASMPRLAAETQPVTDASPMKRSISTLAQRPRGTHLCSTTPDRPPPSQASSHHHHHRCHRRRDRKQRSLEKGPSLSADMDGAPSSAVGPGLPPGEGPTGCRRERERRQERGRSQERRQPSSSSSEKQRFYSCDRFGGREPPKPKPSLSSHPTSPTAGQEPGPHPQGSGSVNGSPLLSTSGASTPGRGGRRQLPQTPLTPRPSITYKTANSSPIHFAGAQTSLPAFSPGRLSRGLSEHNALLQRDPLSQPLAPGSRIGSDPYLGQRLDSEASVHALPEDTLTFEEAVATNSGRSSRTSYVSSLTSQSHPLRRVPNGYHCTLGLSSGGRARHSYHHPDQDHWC
human Cav2.2, sequence (P54289 25-956 partner limits assumed): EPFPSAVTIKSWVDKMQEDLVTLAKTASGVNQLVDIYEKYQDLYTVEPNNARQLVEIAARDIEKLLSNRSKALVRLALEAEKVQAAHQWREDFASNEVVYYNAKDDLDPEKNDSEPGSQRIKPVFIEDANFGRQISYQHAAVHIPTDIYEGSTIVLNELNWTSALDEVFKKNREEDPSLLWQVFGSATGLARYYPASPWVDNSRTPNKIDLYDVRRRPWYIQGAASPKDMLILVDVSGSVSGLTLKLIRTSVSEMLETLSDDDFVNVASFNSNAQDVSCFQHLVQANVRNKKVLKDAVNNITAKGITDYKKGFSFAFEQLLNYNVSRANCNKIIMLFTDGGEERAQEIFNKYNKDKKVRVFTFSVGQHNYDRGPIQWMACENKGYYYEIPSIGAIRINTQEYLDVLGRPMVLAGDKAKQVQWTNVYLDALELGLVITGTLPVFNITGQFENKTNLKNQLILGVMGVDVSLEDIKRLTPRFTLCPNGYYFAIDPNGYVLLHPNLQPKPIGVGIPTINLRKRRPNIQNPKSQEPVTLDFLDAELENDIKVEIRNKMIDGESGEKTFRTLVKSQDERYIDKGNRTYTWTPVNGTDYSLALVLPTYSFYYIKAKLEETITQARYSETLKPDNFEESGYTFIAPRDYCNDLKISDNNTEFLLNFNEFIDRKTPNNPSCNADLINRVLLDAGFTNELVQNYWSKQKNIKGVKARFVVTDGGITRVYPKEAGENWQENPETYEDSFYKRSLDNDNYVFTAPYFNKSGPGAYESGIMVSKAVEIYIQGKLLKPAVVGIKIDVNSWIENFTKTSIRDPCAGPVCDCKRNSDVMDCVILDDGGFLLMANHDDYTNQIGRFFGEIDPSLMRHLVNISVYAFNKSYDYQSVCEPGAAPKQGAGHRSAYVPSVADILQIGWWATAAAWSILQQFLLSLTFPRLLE
human Cav2.2, sequence (P54289 957-1103 partner limits assumed): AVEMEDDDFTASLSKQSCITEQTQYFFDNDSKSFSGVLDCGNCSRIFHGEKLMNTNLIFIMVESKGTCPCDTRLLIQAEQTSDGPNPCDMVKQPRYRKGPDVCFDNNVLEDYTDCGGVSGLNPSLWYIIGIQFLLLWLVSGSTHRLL
human Cav2.2, sequence (P54284 whole entry partner): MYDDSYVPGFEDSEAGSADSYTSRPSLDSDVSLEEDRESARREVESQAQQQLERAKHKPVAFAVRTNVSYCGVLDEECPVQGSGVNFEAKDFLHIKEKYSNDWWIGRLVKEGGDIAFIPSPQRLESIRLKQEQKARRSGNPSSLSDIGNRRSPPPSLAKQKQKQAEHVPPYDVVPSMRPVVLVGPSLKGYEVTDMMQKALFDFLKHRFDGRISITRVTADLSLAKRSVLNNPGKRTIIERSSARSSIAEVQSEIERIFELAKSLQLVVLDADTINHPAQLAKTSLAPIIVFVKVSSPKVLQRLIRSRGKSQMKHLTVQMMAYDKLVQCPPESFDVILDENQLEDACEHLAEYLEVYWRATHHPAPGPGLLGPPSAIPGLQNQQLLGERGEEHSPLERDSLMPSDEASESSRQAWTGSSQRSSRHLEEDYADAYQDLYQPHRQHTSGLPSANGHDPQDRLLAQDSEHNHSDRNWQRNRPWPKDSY

Structure (SMILES)	IC50 [1]	IC50	also measured
FC(F)(F)c1cccc(N2C[C@H]3CC[C@H](NCc4c[nH]nc4-c4ccccc4)[C@H]3C2)n1 [Example 682, (3aR,4S,6aS)-N-[(3-phenyl-1H-pyrazol-4-yl)methyl]-2-[6-(trifluoromethyl)pyridin-2-yl]octahydrocyclopenta[c]pyrrol-4-amine]		0.87 µM	
N[C@H]1CC[C@@H]2CN(c3cccc(C(F)(F)F)c3)C[C@@H]21 [Example 605, (3aR,4S,6aS)-2-[3-(trifluoromethyl)phenyl]octahydrocyclopenta[c]pyrrol-4-amine]		4.33 µM	
O=C(N[C@H]1CC[C@H]2CN(Cc3cccc(F)c3)C[C@H]21)C(C1CCCCC1)C1CCCCC1 [Example 64, 2,2-dicyclohexyl-N-[(3aS,4S,6aR)-2-(3-fluorobenzyl)octahydrocyclopenta[c]pyrrol-4-yl]acetamide]		0.99 µM	
O=C(N[C@@H]1CC[C@H]2CN(Cc3ccccc3)C[C@H]21)C(c1ccccc1)C1CCCCC1 (relative stereo) [Example 4, N-[(3aS*,4R*,6aR*)-2-benzyloctahydrocyclopenta[c]pyrrol-4-yl]-2-cyclohexyl-2-phenylacetamide]			IC50 (IC50 (μM) or percent inhibition (* indicates 3 minute incubation, otherwise 60 minute), IC50, 3 minute pre-incubation (*), IMR32 cells, 80 mM KCl depolarization): 3.5 µM
Cc1n[nH]cc1CN[C@H]1CC[C@@H]2CN(c3cccc(C(F)(F)F)n3)C[C@@H]21 [Example 695, (3aR,4S,6aS)-N-[(3-methyl-1H-pyrazol-4-yl)methyl]-2-[6-(trifluoromethyl)pyridin-2-yl]octahydrocyclopenta[c]pyrrol-4-amine]		2.55 µM	
O=C(N[C@@H]1CC[C@H]2CN(CCCCCC(c3ccc(F)cc3)c3ccc(F)cc3)C[C@H]21)C(C1CCCCC1)C1CCCCC1 [Example 78, N-{(3aS,4R,6aR)-2-[6,6-bis(4-fluorophenyl)hexyl]octahydrocyclopenta[c]pyrrol-4-yl}-2,2-dicyclohexylacetamide]		1.34 µM	
CN[C@@H](CC(C)C)C(=O)N[C@H]1CC[C@@H]2CN(c3ccccc3OC(F)(F)F)C[C@@H]21 [Example 699, N^2-methyl-N-{(3aR,4S,6aS)-2-[2-(trifluoromethoxy)phenyl]octahydrocyclopenta[c]pyrrol-4-yl}-L-leucinamide]		0.65 µM	

Further lines, with some results ahead:

IC50 [1]	IC50	Structure (SMILES)	also measured
3.36 µM		CC(C)(C)C(C(=O)N[C@H]1CC[C@@H]2CN(Cc3ccccc3)C[C@@H]21)c1ccccc1 (stereo partly drawn) [Example 52, N-[(3aR,4S,6aS)-2-benzyloctahydrocyclopenta[c]pyrrol-4-yl]-3,3-dimethyl-2-phenylbutanamide]	
7.41 µM		CC[C@H](C(=O)N[C@H]1CC[C@@H]2CN(Cc3ccccc3)C[C@@H]21)c1ccccc1 [Example 33, (2S)-N-[(3aR,4S,6aS)-2-benzyloctahydrocyclopenta[c]pyrrol-4-yl]-2-phenylbutanamide]	
9.71 µM		CN[C@@H](CC(C)C)C(=O)N[C@H]1CC[C@@H]2CN(Cc3ccc(C(F)(F)F)cc3)C[C@@H]21 [Example 380, N^2-methyl-N^1-{(3aR,4S,6aS)-2-[4-(trifluoromethyl)benzyl]octahydrocyclopenta[c]pyrrol-4-yl}-L-leucinamide]	
	11 µM	CC(C)C(C(=O)N[C@@H]1CC[C@H]2CN(Cc3ccccc3)C[C@H]21)C(C)C [Example 235, N-[(3aS,4R,6aR)-2-benzyloctahydrocyclopenta[c]pyrrol-4-yl]-2-isopropyl-3-methylbutanamide]	
2.81 µM		CC(C)C(C(=O)N[C@H]1CC[C@@H]2CN(CCCc3cc(F)cc(Cl)c3)C[C@@H]21)c1ccccc1 (stereo partly drawn) [Example 114, N-{(3aR,4S,6aS)-2-[3-(3-chloro-5-fluorophenyl)propyl]octahydrocyclopenta[c]pyrrol-4-yl}-3-methyl-2-phenylbutanamide]	
3.94 µM		CC(C)C[C@@H](N)C(=O)N[C@@H]1CC[C@H]2CN(Cc3cccc(C(F)(F)F)c3)C[C@H]21 (relative stereo) [Example 162, N^1-{(3aS*,4R*,6aR*)-2-[3-(trifluoromethyl)benzyl]octahydrocyclopenta[c]pyrrol-4-yl}-D-leucinamide]	
